Source: PubChem BioAssay (NCI)
Where “and” joins values, the source holds several entries; their conditions need not be identical. Equal values may be shown once.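 Protocol summary: plate cells (96-well), add compound at 5 concentrations, incubate 48 h, interpolate endpoints linearly. Here, GI50 denotes the concentration required for 50% inhibition of growth. TGI: concentration producing complete growth inhibition.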 Calls of active or inactive are those of the source. No stated cut-off is given here; in the data, active means GI50 below about 0.43 µM; inactive means the rest.

Experiments:
Experiment in all cases: DTP human tumour cell line panel, 48 h
A549 NSCLC = test system: A549 NSCLC
COLO 205 colon = test system: COLO 205 colon
HL-60(TB) leukemia = test system: HL-60(TB) leukemia
HOP-92 NSCLC = test system: HOP-92 NSCLC
K-562 leukemia = test system: K-562 leukemia
NCI-H23 lung = test system: NCI-H23 lung
OVCAR-8 ovarian = test system: OVCAR-8 ovarian
PC-3 prostate = test system: PC-3 prostate
UACC-257 melanoma = test system: UACC-257 melanoma

Row | Compound | TGI (A549 NSCLC) | TGI (COLO 205 colon) [µM] | TGI (HL-60(TB) leukemia) [µM] | TGI (HOP-92 NSCLC) | TGI (K-562 leukemia) | TGI (NCI-H23 lung) | TGI (OVCAR-8 ovarian) | TGI (PC-3 prostate) [µM] | TGI (UACC-257 melanoma) | GI50 (A549 NSCLC) [µM] | GI50 (COLO 205 colon) [µM] | GI50 (HL-60(TB) leukemia) [µM] | GI50 (HOP-92 NSCLC) [µM] | GI50 (K-562 leukemia) [µM] | GI50 (NCI-H23 lung) [µM] | GI50 (OVCAR-8 ovarian) [µM] | GI50 (PC-3 prostate) [µM] | GI50 (UACC-257 melanoma) [µM] | outcome (A549 NSCLC)
1 | CC1CN1C(=O)NCCCCCCNC(=O)N1CC1C (stereo unspecified) | > 100 µM | > 100 | > 100 | > 100 µM | > 100 µM | > 100 µM | > 100 µM | > 100 | > 100 µM |  |  |  |  |  |  |  |  |  | 
2 | N#CSC1CCCCNC1=O (stereo unspecified) | 60 µM | 30.2 | 87.4 | 20.9 µM | 62.3 µM | 24.4 µM | 33.6 µM | 34 | 34.6 µM |  |  |  |  |  |  |  |  |  | 
3 | O=C1Nc2ccccc2C1(c1ccc(O)cc1)c1ccc(O)cc1 | > 96.7 µM | 4.38 | 63 | 21.2 µM | > 100 µM | 37.8 µM | 77.5 µM | 75 | 62 µM | 27.9 | 0.125 | 22.9 | 2.42 | 29.2 | 1.23 | 0.273 | 2.71 | 25.3 | 
4 | CC1(C)OC2=C(CC1Br)C(=O)C(=O)c1ccccc12 (stereo unspecified) | 4.87 µM | 3.39 | 4.57 | 3.97 µM | 4.89 µM | 3.75 µM | 3.89 µM | 4.95 | 3.27 µM | 2.41 | 1.89 | 1.8 | 2.33 | 2.23 | 1.66 | 2.02 | 2.13 | 1.76 | 
5 | Cc1ccc(C(=O)N(CCCN)C(c2oc3cc(Cl)ccc3c(=O)c2Cc2ccccc2)C(C)C)cc1 (stereo unspecified) | 1.54 µM | 0.595 | 0.126 | 1.76 µM | 1.41 µM | 1.61 µM | 1.79 µM | 2.03 | 1.97 µM | < 0.01 | < 0.01 | < 0.01 | < 0.01 | < 0.01 | < 0.01 | < 0.01 | < 0.01 | < 0.01 | 
6 | Cc1ccc2c(c1)Sc1c(ccc3ccccc13)N2 | > 100 µM | > 100 | > 100 | > 100 µM | > 100 µM | > 100 µM | > 100 µM | > 100 | > 100 µM | 92.8 | 76.1 | 34.2 | 7.07 | 11.2 | > 100 | 35 | 11.5 | > 100 | 
7 | Nc1nc(N(Cc2ccccc2)c2ccccc2)c2cn[nH]c2n1 | > 100 µM | > 100 | 6.6 | > 100 µM | > 100 µM | > 100 µM | > 100 µM | > 100 | > 100 µM | 5.47 | 2.9 | 1.57 | 1.42 | 2.49 | 6.06 | 6.01 | 4.56 | 9.84 | 
8 | O=c1cc(-c2ccccc2)oc2cc(OC/C(=N/O)c3ccccc3)ccc12 | > 50 µM | > 50 | > 50 | > 50 µM | > 50 µM | > 50 µM | > 50 µM | 38.4 | > 50 µM | 31.7 | > 50 | > 50 | 13.8 | 36.5 | 22.6 | 32.8 | 9.4 | > 50 | 
9 | COc1cc2cc(Oc3ccc(NC(=O)Nc4ccc(Cl)c(C(F)(F)F)c4)cc3)c(C)nc2cc1OCCN1CCOCC1 | > 100 µM | 3.78 | 7.55 | 6.16 µM | 6.95 µM | 3.89 µM | > 100 µM | 6 | 4.55 µM | 2.13 | 1.63 | 2.32 | 1.66 | 0.669 | 1.12 | 2.67 | 1.36 | 1.57 | 
10 | O=C(CCc1nnc2sc(-c3ccc(Cl)cc3Cl)nn12)c1nc2ccccc2[nH]1 | 4.96 µM | 2.65 | 5.52 | 1.86 µM | 2.56 µM | 3 µM | > 23.4 µM | 3.62 | 4.31 µM | 1.88 | 1.09 | 1.24 | 0.391 | 0.451 | 0.694 | 1.48 | 0.865 | 1.83 | 
11 | CCOC(=S)SSSC(=S)OCC | > 100 µM | > 100 | > 100 | > 100 µM | > 100 µM | > 100 µM | 32.3 µM | > 100 | > 100 µM |  |  |  |  |  |  |  |  |  | 
12 | COc1ccc(C(=O)C#Cc2cnc(OC)nc2OC)cc1 | 15.7 µM | 42100 |  |  |  | 3.08 µM | 3.4 µM | 2.58 | 5.63 µM |  |  | 22100 | 19700 | 12100 | 35000 | 32300 | 27800 | 40800 | inactive
13 | CS(=O)(=O)CCNCc1ccc(-c2ccc3ncnc(Nc4ccc(OCc5ccccc5)cc4)c3c2)o1 | > 25 µM | 11.4 | 14 | 14.1 µM | > 25 µM | > 25 µM | > 25 µM | > 23.7 | 8.56 µM | 5.19 | 5 | 6.4 | 3.13 | 9.27 | 8.57 | 8.73 | 7.23 | 4.38 | 
14 | COc1ccc2c(c1)C(=O)c1c-2n(CCCn2ccnc2)c(=O)c2cc([N+](=O)[O-])ccc12 |  | > 42.8 | 16.1 |  | > 100 µM | < 0.01 µM | > 45.7 µM | > 100 |  | < 0.01 | 0.0548 | < 0.01 | < 0.0397 | < 0.01 | < 0.01 | < 0.01 | 0.0168 | 0.115 | 
15 | COC(=O)Nc1nc2ccc(Oc3ccc(NC(=O)Nc4cc(C(F)(F)F)ccc4F)cc3)cc2s1 | > 25 µM | > 25 | > 25 | > 25 µM | > 25 µM | > 25 µM | > 25 µM | > 25 | > 25 µM | 15 | > 25 | > 13.5 | 0.288 | 0.0202 | 9.25 | 8.67 | 11.5 | > 25 | 
16 | O=C1c2cccc([N+](=O)[O-])c2C(=O)N1c1ncn[nH]1 | > 100 µM | > 100 | > 100 | 52.6 µM | > 100 µM | > 100 µM | > 100 µM | > 100 | > 100 µM |  |  |  |  |  |  |  |  |  | 
17 | C=C(C[C@](O)(C(=O)/C=C/c1ccc(Cl)cc1)C(=O)OC)c1ccccc1 | 21.8 µM | 4.36 | 7.83 | 15.5 µM | 8.8 µM | 11.9 µM | 12.8 µM | 9.04 | 25.8 µM | 6.63 | 2 | 2.72 | 4.07 | 2.12 | 2.82 | 3.43 | 2.7 | 13.1 | 
18 | O=C(CC1C(=O)NN(c2ccc(Br)cc2)C1=O)c1cc(O)ccc1O (stereo unspecified) | > 50 µM | > 50 | > 50 | > 50 µM | > 50 µM | > 50 µM | > 50 µM | > 50 | > 50 µM | > 50 | 23.3 | 23.5 | 11.6 | 14.8 | 19.8 | 18.4 | 24.1 | 19.6 | 
19 | COc1ccc(-c2nc(-c3nc4ccc(Cl)cc4[nH]3)c3ccccn23)cc1 | 4.27 µM | 13.3 | > 100 | 6.09 µM | 80.1 µM | 45.7 µM | 6.69 µM | 5.63 | 8.5 µM | 1.82 | 3.61 | 49.8 | 2.19 | 5.4 | 7.52 | 2.4 | 2.13 | 2.63 | 
20 | NC(=O)NS(=O)(=O)c1ccc(N2N=C(C(F)(F)F)CC2c2cc(C(F)(F)F)cc(C(F)(F)F)c2)cc1 (stereo unspecified) | 13.5 µM | 12 | > 100 | 29.3 µM | > 100 µM | 19.2 µM | 20 µM | 12.2 | 7.18 µM | 3.36 | 2.96 | 3.89 | 12.9 | 4.98 | 5.32 | 4.78 | 2.35 | 2.58 | 
21 | COc1ccc2c(c1)CCCN2c1c2ccccc2nc2ccccc12 | > 100 µM | 0.849 | 1.09 | 6.46 µM | > 100 µM | 5.48 µM | > 100 µM | > 100 | > 100 µM | 0.418 | 0.269 | 0.298 | 0.683 | 0.341 | 0.356 | 0.481 | 0.354 | 8.11 | 
22 | Nc1nc2c(nnn2C2CC(O)C(CO)O2)c(=O)[nH]1 (stereo unspecified) | > 100 µM | 6.3 | > 38.1 | 51.1 µM | > 100 µM | > 100 µM | > 100 µM | > 100 | > 100 µM | 20.3 | 1.89 | 1.15 | 1.62 | 4.04 | 4.61 | 3.71 | 2.55 | > 48.9 | 
23 | O=C1C(Cl)=C(NCCN2CCOCC2)C(=O)c2ncccc21 | 4.18 µM and 3.87 µM | 3.43 | 4.44 | 3.84 µM and 5.47 µM | 3.67 µM and 4.61 µM | 3.75 µM and 3.52 µM | 3.79 µM and 3.29 µM | 18.7 | 3.13 µM and 2.69 µM |  | 1.61 | 1.43 |  | 1.67 | 1.25 |  | 4.26 | 1.37 | 
24 | CCOCC(=O)N[C@H]1CCc2cc(OC)c(OC)c(OC)c2-c2ccc(OC)c(=O)cc21 | > 100 µM | 0.0205 | 0.101 | 7.24 µM | > 100 µM | 0.178 µM | 17 µM | > 100 | > 100 µM |  |  |  |  |  |  |  |  |  | 
25 | O=C(O)CCNC1CCCCC1 | > 100 µM | > 100 | > 100 | > 100 µM | > 100 µM | > 100 µM | > 100 µM | > 100 | > 100 µM | > 100 | > 100 | > 100 | > 100 | > 100 | > 100 | > 100 | > 100 | > 100 | 
26 | CCCn1c(=S)sc2c1nc(C)n1c(Nc3ccccc3)nnc21 | > 100 µM | 47.3 | > 100 | 20.2 µM | 37.7 µM | 11.1 µM | > 100 µM | 34.5 | 36.1 µM | 6.18 | 17 | 3.46 | 2.31 | 6.15 | 2.77 | 4.92 | 4.04 | 3.36 | 
27 | COc1cc2ncn(-c3cc(OCc4cccs4)c(C(N)=O)s3)c2cc1OC | > 17.5 µM | > 13.9 | 8.73 | > 22 µM | > 25 µM | > 25 µM | > 17 µM | > 25 | > 25 µM | 1.87 | 1.11 | 0.804 | 4.38 | 1.14 | 1.24 | 1.52 | 3.43 | 3.15 | 
28 | O=C(O)C(=Cc1ccc(-c2ccccc2)cc1)C(=O)O | > 58.8 µM | 25.1 | 26.6 | > 68.6 µM | 36.9 µM | 32.2 µM | > 92 µM | 27.6 | 25 µM |  |  |  |  |  |  |  |  |  | 
29 | COc1cc[nH]c1/C=C1\C(=O)Nc2ccc(F)c(C#CC3(O)CCNCC3)c21 | 1.18 µM | 0.372 | 0.228 | 0.794 µM | 2.51 µM | 1.14 µM | 1.65 µM | 1.95 | 1.6 µM | 0.0985 | 0.0303 | 0.0532 | 0.106 | 0.55 | 0.161 | 0.172 | 0.181 | 0.363 | 
30 | CCN(CC)CCCC(C)Nc1c2ccc(Cl)cc2nc2ccc(O)cc12 (stereo unspecified) | 3.67 µM | 2.63 | 6.25 | 12 µM | 8.94 µM | 13.6 µM | 11.7 µM | 18.5 | 3.31 µM | 1.47 | 1.17 | 2.06 | 2.05 | 2.22 | 3.18 | 1.73 | 3.58 | 1.7 | 
